The values below come from the Deep4Chem optical property database.

SMILES strings stand for the structures.

A short description of this data set: solvent given as SMILES.

For `CCC1=C(C)C2=C(c3c4ccccc4c(-c4ccccc4)c4ccccc34)c3c(C)c(CC)c(C)n3[B-](F)(F)[N+]2=C1C`, the emission maximum is, setting by setting: (in CC#N) 536 nm; (in CCCCCC) 539 nm; (in CCO) 538 nm; (in CN(C)C=O) 539 nm; (in Cc1ccccc1) 544 nm; (in ClCCl) 543 nm.

Regarding `COc1cc2oc(=O)c3c4ccc(C=O)cc4c4ccc5cccc6c(c1)c2c3c4c56`, the emission maximum (in C1CCOC1) amounted to 442 nm.

The molecule `[O-]c1ccccc1-c1[nH+]c2c3ccccc3c3ccccc3c2o1` had an emission maximum (in Cc1ccccc1) of 495 nm.

Take `CN1C(=CC2=C([O-])C(=CC3=[N+](C)c4ccccc4C3(C)C)C2=C(C#N)C#N)C(C)(C)c2ccccc21`: the emission maximum (in ClC(Cl)Cl) was found to be 700 nm.

Consider `COc1ccc2cc(/C=C/C3=C4CCc5ccccc5C4=[O+][B-](F)(F)O3)ccc2c1`, for which the emission maximum (in ClCCl) is recorded as 564 nm.

`C[Si](C)(C)C#Cc1cccc2ccccc12` gave an emission maximum (in C1CCCCC1) of 336 nm.

Take `Cc1ccc(C2=C3C=CC(C#Cc4ccccc4)=[N+]3[B-](F)(F)n3c(Cl)ccc32)cc1`: the emission maximum (in C1CCCCC1) is listed as 575 nm; the emission maximum (in C1CCOC1) was 573 nm; the emission maximum (in C1COCCO1) is on record as 575 nm; the emission maximum (in CCOC(C)=O) is reported as 571 nm; the emission maximum (in CO) came out at 569 nm; the emission maximum (in Cc1ccccc1) came to 577 nm. The same molecule registered an emission maximum (in ClC(Cl)Cl) of 577 nm.

For the molecule `O=C1c2ccc(-c3ccc(N(c4ccccc4)c4ccccc4)cc3)cc2C(=O)c2ccc(-c3ccc(N(c4ccccc4)c4ccccc4)cc3)cc21`, the emission maximum is, setting by setting: (in Cc1ccccc1) 597 nm; (in c1ccc2c(c1)c1ccccc1n2-c1ccc(-c2ccc(-n3c4ccccc4c4ccccc43)cc2)cc1) 594 nm.

In the case of `CC(C)(C)c1ccc2c(c1)c1cc(C(C)(C)C)cc3c1n2-c1cc(-c2cccc(F)c2)cc2c1B3c1cc(C(C)(C)C)cc3c4cc(C(C)(C)C)ccc4n-2c13`, for the setting “in Cc1ccccc1”, the emission maximum was 493.65 nm.

On to `COc1cc2c(c(OC)c1OC)c1ccc3cccc4c5cccc6oc(=O)c2c(c65)c1c34`, for which the emission maximum (in C1CCOC1) worked out at 492 nm.

In turn, `Cc1cc(=O)c2c(ccc3ccc(O)cc32)o1` yielded an emission maximum (in CC#N) of 430 nm.

Turning to `N#Cc1ccc(/C=C2\OC(=O)c3cc(N)ccc32)cc1`, the emission maximum (in CC#N) stood at 485.44 nm; the emission maximum (in CC(C)=O) is reported as 482.16 nm; the emission maximum (in CC(C)CO) was 502.26 nm; the emission maximum (in CC(C)O) came to 496.03 nm; the emission maximum (in CCCO) came out at 498.26 nm; the emission maximum (in CCO) is listed as 502.77 nm. The same molecule showed an emission maximum (in CCOC(C)=O) of 467.73 nm, an emission maximum (in CCOCC) of 444.84 nm and an emission maximum (in CO) of 503.52 nm.

Regarding `CCCCCCc1cc2c3c(c1)c(=C1c4ccccc4S(=O)(=O)c4ccccc41)c1cc(CCCCCC)cc4c1N3c1c(cc(CCCCCC)cc1c4=C1c3ccccc3S(=O)(=O)c3ccccc31)c2=C1c2ccccc2S(=O)(=O)c2ccccc21`, the emission maximum (in ClCCl) was determined as 528 nm.
